According to US12121606B2, “Methods and compositions for improving skin” (L'OREAL, priority 2021, dated 2024):

System: in vitro skin samples (EPISKIN)
Test: In vitro skin samples after fractional laser procedure, wound healing by OCT imaging
Assay type: cell-based
Conditions: application after the fractional laser procedure
Method: The benefits of applying the Composition 4 to skin after a procedure that reduces the barrier function of skin was evaluated in vitro using samples generated by the EPISKIN™ group. Composition 4 comprised 0.5 wt. % of acetyl trifluoromethylphenyl valylglycine and 2 wt. % ethanol with the remainder being water, with all weight percentages based on the total weight of the formulation. A comparative composition (Comparative Composition A) containing transforming growth factor alpha (“TGF-α”) was also evaluated as a comparison to the Composition 4.
Specifically, a fractional laser procedure that is typical of laser resurfacing procedures was applied to the in vitro skin samples. The in vitro skin samples were characterized using non-invasive imaging analysis to determine the wound morphology of the in vitro skin samples. The kinetics and quantification of wound healing after the laser treatment was evaluated using optical coherence tomography (OCT). The optical measurements were performed at seven time points over the culture period. This was achieved using an OCT system produced by Thorlabs (Newton, N.J., USA) with an axial resolution of 8 μm.
Composition 4 and Comparative Composition A were applied by adding 10 uL onto in vitro skin samples after the fractional laser procedure. […]

CC(=O)N(c1cccc(C(F)(F)F)c1)C(C(=O)NCC(=O)O)C(C)C (stereo not shown) [acetyl trifluoromethylphenyl valylglycine]
regeneration of the epidermis: enhanced regeneration of the epidermis
